Laboratory results as given in the supplement of paper PMC11061612.

Columns and labels:
SIMA (Neuroblastoma) [1] = assay: Bliss excess, mean over the matrix (fraction); higher = more synergy
Method in brief: (§1)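 Cell lines in DMEM/F12 or RPMI with 10% FBS were plated in 1536-well plates, held 24 hours at 37°C, 5% CO2, then given two-drug dose matrices for 72 hours (DMSO typically 0.2%). Viability was read by CellTiter-Glo 2.0 luminescence and scaled as inhibition from 0 (vehicle wells) to 1 (blank wells). Combination Emax is the second-highest inhibition in the matrix; Bliss excess is observed combination effect minus expected EA + EB − EA·EB, EA and EB being single-agent effects.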

[2] = test system: PCI-30 (Head and Neck Carcinoma); assay: combination Emax (second highest fraction inhibited in the dose matrix, 72 h); higher = more inhibition; extreme values may be limits of the assay
Method in brief: as §1

[3] = test system: LoVo (Colorectal Carcinoma); assay: as above
Method in brief: as §1

[4] = test system: RKO (Colorectal Carcinoma); assay: as above
Method in brief: as §1

SIMA (Neuroblastoma) [5] = assay: as above
Method in brief: as §1

[6] = test system: SW1116 (Colorectal Carcinoma); assay: as above
Method in brief: as §1

[7] = test system: SUP-T1 (T-Lymphoblastic Leukemia); assay: as above
Method in brief: as §1

[8] = test system: EN (Endometrial Carcinoma); assay: as above
Method in brief: as §1

[9] = test system: TE-4 (Esophageal Squamous Cell Carcinoma); assay: as above
Method in brief: as §1

SH-4 (Melanoma) = assay: as above
Method in brief: as §1
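For Bliss excess, mean over the matrix in this document: after 72 h of two-drug dosing.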

Compound	Bliss excess (SIMA (Neuroblastoma) [1])	combination Emax [2]	combination Emax [3]	combination Emax [4]	combination Emax (SIMA (Neuroblastoma) [5])	combination Emax [6]	combination Emax [7]	combination Emax [8]	combination Emax [9]	combination Emax (SH-4 (Melanoma))
Cc1c2c(nn1C)CSCc1cc(n(C)n1)CSc1cc(c3ccccc3c1)OCCCc1c(C(=O)O)n(C)c3c-2c(Cl)ccc13 [AZD5991] + Cn1cnc2c(F)c(Nc3ccc(Br)cc3Cl)c(C(=O)NOCCO)cc21 [Selumetinib] (first compound max 1 µM, 7x7, partner max 3 µM)	0.0879	0.198	0.565	0.406	0.516	0.446	0.236	0.535	0.453	0.96
Cn1cnc2c(F)c(Nc3ccc(Br)cc3Cl)c(C(=O)NOCCO)cc21 [Selumetinib] + CC(C)n1c(=O)n(C)c2cnc3cc(F)c(-c4ccc(OCCCN5CCCCC5)nc4)cc3c21 [AZD1390] (first compound max 10 µM, 7x7, partner max 0.3 µM)		0.203	0.425	0.606		0.502	0.0785	0.261	0.226	0.854
COc1nnc2ccc(N3CCC(c4ccc(OCCN5CCN(C)C(=O)[C@H]5C)cc4)CC3)nn12 [AZD5153] + CC1(C)CCC(CN2CCN(c3ccc(C(=O)NS(=O)(=O)c4ccc(NCC5CCOCC5)c([N+](=O)[O-])c4)c(Oc4cnc5[nH]ccc5c4)c3)CC2)=C(c2ccc(Cl)cc2)C1 [Venetoclax] (first compound max 1 µM, 7x7, partner max 1 µM)		0.344	0.464	0.757		0.353	0.745	0.289	0.27	0.607
Cn1cnc2c(F)c(Nc3ccc(Br)cc3Cl)c(C(=O)NOCCO)cc21 [Selumetinib] + C[C@@H]1COCCN1C2=NC(=NC(=C2)C3(CC3)[S@](=N)(=O)C)C4=C5C=CNC5=NC=C4 [AZD6738] (first compound max 10 µM, 7x7, partner max 10 µM)		0.371	0.738	0.945		0.476	0.713	0.558	0.791	0.91
CC(=O)c1c(C)c2cnc(Nc3ccc(N4CCNCC4)cn3)nc2n(C2CCCC2)c1=O [Palbociclib] + Cc1c2c(nn1C)CSCc1cc(n(C)n1)CSc1cc(c3ccccc3c1)OCCCc1c(C(=O)O)n(C)c3c-2c(Cl)ccc13 [AZD5991] (first compound max 10 µM, 7x7, partner max 1 µM)		0.276	0.557	0.472		0.164	0.656	0.566	0.966	0.314
Cc1nc(Nc2ncc(C(=O)Nc3c(C)cccc3Cl)s2)cc(N2CCN(CCO)CC2)n1 [Dasatinib] + CC(=O)Nc1cccc(-n2c(=O)n(C3CC3)c(=O)c3c(Nc4ccc(I)cc4F)n(C)c(=O)c(C)c32)c1 [Trametinib] (first compound max 2 µM, 7x7, partner max 1 µM)		0.643	0.801	0.885		0.757	0.577	0.289	0.857	0.935
NC1(C(=O)N[C@@H](CCO)c2ccc(Cl)cc2)CCN(c2ncnc3[nH]ccc23)CC1 [Capivasertib] + COc1nnc2ccc(N3CCC(c4ccc(OCCN5CCN(C)C(=O)[C@H]5C)cc4)CC3)nn12 [AZD5153] (first compound max 10 µM, 7x7, partner max 1 µM)		0.366	0.642	0.842		0.245	0.789	0.525	0.851	0.775
Cn1cnc2c(F)c(Nc3ccc(Br)cc3Cl)c(C(=O)NOCCO)cc21 [Selumetinib] + C=CCn1c(=O)c2cnc(Nc3ccc(N4CCN(C)CC4)cc3)nc2n1-c1cccc(C(C)(C)O)n1 [AZD1775] (first compound max 10 µM, partner max 1 µM)		0.173	0.723	0.904		0.444	0.809	0.587	0.642	0.94
CC1(C)CCC(CN2CCN(c3ccc(C(=O)NS(=O)(=O)c4ccc(NCC5CCOCC5)c([N+](=O)[O-])c4)c(Oc4cnc5[nH]ccc5c4)c3)CC2)=C(c2ccc(Cl)cc2)C1 [Venetoclax] + Cc1cc2ncnn2cc1Nc1ncc2c(n1)n(C1CCOCC1)c(=O)n2C [AZD7648] (first compound max 1 µM, 7x7, partner max 10 µM)		0.224	0.443	0.275		0.151	0.602	0.49	0.228	0.279
COc1nnc2ccc(N3CCC(c4ccc(OCCN5CCN(C)C(=O)[C@H]5C)cc4)CC3)nn12 [AZD5153] + Cc1c2c(nn1C)CSCc1cc(n(C)n1)CSc1cc(c3ccccc3c1)OCCCc1c(C(=O)O)n(C)c3c-2c(Cl)ccc13 [AZD5991] (first compound max 1 µM, 7x7, partner max 1 µM)		0.344	0.545	0.78		0.414	0.726	0.645	0.847	0.89
Cc1c2c(nn1C)CSCc1cc(n(C)n1)CSc1cc(c3ccccc3c1)OCCCc1c(C(=O)O)n(C)c3c-2c(Cl)ccc13 [AZD5991] + Cc1cc2ncnn2cc1Nc1ncc2c(n1)n(C1CCOCC1)c(=O)n2C [AZD7648] (first compound max 1 µM, 7x7, partner max 10 µM)		0.323	0.573	0.364	0.543	0.168	0.466	0.563	0.517	0.284
C[C@@H](c1ccc2nccn2c1)n1nnc2ncc(-c3cnn(C)c3)nc21 [Savolitinib] + CC1(C)CCC(CN2CCN(c3ccc(C(=O)NS(=O)(=O)c4ccc(NCC5CCOCC5)c([N+](=O)[O-])c4)c(Oc4cnc5[nH]ccc5c4)c3)CC2)=C(c2ccc(Cl)cc2)C1 [Venetoclax] (first compound max 1 µM, 7x7, partner max 1 µM)		0.143	0.195	0.166		0.145	0.131	0.238	0.145	0.139
CC(=O)c1c(C)c2cnc(Nc3ccc(N4CCNCC4)cn3)nc2n(C2CCCC2)c1=O [Palbociclib] + Cn1cnc2c(F)c(Nc3ccc(Br)cc3Cl)c(C(=O)NOCCO)cc21 [Selumetinib] (first compound max 10 µM, 7x7, partner max 10 µM)		0.223	0.679	0.715		0.396	0.599	0.184	0.403	0.886
COc1nnc2ccc(N3CCC(c4ccc(OCCN5CCN(C)C(=O)[C@H]5C)cc4)CC3)nn12 [AZD5153] + C[C@@H]1COCCN1C2=NC(=NC(=C2)C3(CC3)[S@](=N)(=O)C)C4=C5C=CNC5=NC=C4 [AZD6738] (first compound max 1 µM, 7x7, partner max 10 µM)		0.404	0.814	0.923		0.432	0.844	0.584	0.898	0.666
CC1(C)CCC(CN2CCN(c3ccc(C(=O)NS(=O)(=O)c4ccc(NCC5CCOCC5)c([N+](=O)[O-])c4)c(Oc4cnc5[nH]ccc5c4)c3)CC2)=C(c2ccc(Cl)cc2)C1 [Venetoclax] + C1CN(CCC1(C(=O)N[C@@H](CCO)C2=CC=C(C=C2)Cl)N)C3=NC=NC4=C3C=CN4 [Capivasertib] (first compound max 1 µM, 7x7, partner max 3 µM)		0.252	0.454	0.36		0.0942	0.757	0.554	0.564	0.208
NC1(C(=O)N[C@@H](CCO)c2ccc(Cl)cc2)CCN(c2ncnc3[nH]ccc23)CC1 [Capivasertib] + Cn1cnc2c(F)c(Nc3ccc(Br)cc3Cl)c(C(=O)NOCCO)cc21 [Selumetinib] (first compound max 10 µM, 7x7, partner max 10 µM)		0.342	0.717	0.876		0.453	0.682	0.646	0.961	0.909
CC1(C)CCC(CN2CCN(c3ccc(C(=O)NS(=O)(=O)c4ccc(NCC5CCOCC5)c([N+](=O)[O-])c4)c(Oc4cnc5[nH]ccc5c4)c3)CC2)=C(c2ccc(Cl)cc2)C1 [Venetoclax] + CCN(CCO)CCCOc1ccc2c(Nc3cc(CC(=O)Nc4cccc(F)c4)[nH]n3)ncnc2c1 [AZD2811] (first compound max 1 µM, 7x7, partner max 1 µM)		0.229	0.197	0.27		0.202	0.614	0.399	0.191	0.241
CC1(C)CCC(CN2CCN(c3ccc(C(=O)NS(=O)(=O)c4ccc(NCC5CCOCC5)c([N+](=O)[O-])c4)c(Oc4cnc5[nH]ccc5c4)c3)CC2)=C(c2ccc(Cl)cc2)C1 [Venetoclax] + CN(C)CCCOc1ccc(-c2ccc3ncc4c(c3c2)n(C2CCOCC2)c(=O)n4C)cn1 [AZD0156] (first compound max 1 µM, 7x7, partner max 1 µM)		0.149	0.283	0.381		0.103	0.616	0.426	0.179	0.279
NC1(C(=O)N[C@@H](CCO)c2ccc(Cl)cc2)CCN(c2ncnc3[nH]ccc23)CC1 [Capivasertib] + C[C@@H]1COCCN1C2=NC(=NC(=C2)C3(CC3)[S@](=N)(=O)C)C4=C5C=CNC5=NC=C4 [AZD6738] (first compound max 10 µM, 7x7, partner max 10 µM)		0.482	0.801	0.938		0.227	0.866	0.71	0.818	0.492
Cn1cnc2c(F)c(Nc3ccc(Br)cc3Cl)c(C(=O)NOCCO)cc21 [Selumetinib] + CCN(CCO)CCCOc1ccc2c(Nc3cc(CC(=O)Nc4cccc(F)c4)[nH]n3)ncnc2c1 [AZD2811] (first compound max 10 µM, 7x7, partner max 1 µM)		0.233	0.445	0.838		0.534	0.413	0.569	0.422	0.906
